Legend:
Assay type in all cases: in vivo
[1] = system: FT gene; assay: FT gene induction levels in sprayed transgenic arabidopsis plants (real-time RT-PCR); details: for fold gene induction: short day conditions
Procedure: Total RNA was converted to cDNA using standard protocols using 1-5 ug of RNA as measured by OD260.
Quantitative RT-PCR was performed in the BioRad iCycler instrument using standard protocols and SyberGreen as reporting dye
Actin gene levels were assayed using oligonucleotides GTF037 (Seq ID. No. 28) 5′[…]3′ and GTF038 (Seq ID No. 29) 5′[…]3′, and served as standards to normalize measurements of other genes.
To create a copy number calibration curve for individual genes, standards were made up from corresponding PCR products, measuring their concentration using gel serial dilution methods and spectrophotometry. Standard copy numbers were varied from 1 to 10^8 with 10× increments.
Amplifications were performed in triplicates, error rates were estimated by adding the average variance between triplicate samples, and average error of the standard curve fit of the standards of both the gene of interest and of the actin standard.
We have also measured the FT gene induction levels in the sprayed transgenic arabidopsis plants compared with the non-sprayed or non-transgenic controls in plants grown in short day conditions, the results are summarized in the table below:
The methodology we used to measure the gene induction levels was essentially the same as described elsewhere in the patent, except that we used the arabidopsis gene-specific primers NIK13 5′[…]3′ (SEQ ID NO: 34) and NIK14 5′[…]3′ (SEQ ID NO: 35).

[2] = system: Arabidopsis plants containing the pHTOP::FT inducible construct; assay: Time to flowering of arabidopsis plants sprayed with DEX inducer; design: time to flowering: unit not given here
[3] = system: transgenic arabidopsis plants carrying both the pHTOP-FT construct and the LhG4-GR construct; assay: Transgenic arabidopsis grown in the presence of DEX: flowering and GUS staining
Procedure: (A) A plant grown on a 30 μM MS-DEX plate; (B) No DEX control; (C) and (D) GUS staining of leaves from induced plants; (E) GUS staining of a leaf from a non-induced LhGr/pHtop-FT plant; GUS staining of a leaf from a Col wild type plant.
The arabidopsis FT cDNA was inserted into the pHTOP vector system to facilitate inducible expression of the gene using heterologous transcription factor system LhG4^19,27.
This inducible system allows for simultaneous expression of two genes from the same reporter construct. In the experiment described here the GUS gene was used as a second gene in addition to FT.

C[C@@H]1C[C@H]2[C@@H]3CCC4=CC(=O)C=C[C@]4(C)[C@@]3(F)[C@@H](O)C[C@]2(C)[C@@]1(O)C(=O)CO [DEX, dexmethasone]
induction in the cDNA level as assayed in real-time RT-PCR ([1]; 1 mM spray of inducer): lesser induction
fold gene induction ([1]; LhG4-mGR driver plants, sprayed twice 30 μM): 1x
fold gene induction ([1]; pHTOP::FT plants, sprayed twice 30 nM): 1x
fold gene induction ([1]; pHTOP::FT plants, sprayed twice 1 μM): 20x
fold gene induction ([1]; pHTOP::FT plants, sprayed twice 30 μM): 120x
induction in the cDNA level as assayed in real-time RT-PCR ([1]; plants 3 days after treatment with high level of the DEX inducer): > 100 fold
fold gene induction ([1]; wild type plants, sprayed twice 30 μM): 1x
time to flowering ([2]; LhG4-mGR driver, line S7, sprayed twice 30 μM, unit not in table (b146 speaks of days)): 20
emergence of inflorescences ([2]; pHTOP::FT plants sprayed with 30 mM DEX, 6 days after spraying (FIG. 12)): inflorescences have emerged
time to flowering ([2]; pHTOP::FT, line COF3-12, sprayed twice 30 nM): 20
time to flowering ([2]; pHTOP::FT, line COF3-12, sprayed twice 1 μM): 20
time to flowering ([2]; pHTOP::FT, line COF3-12, sprayed twice 30 μM): 16.5
time to flowering ([2]; pHTOP::FT, line COF7-30, sprayed twice 30 nM): 20
time to flowering ([2]; pHTOP::FT, line COF7-30, sprayed twice 1 μM): 19
time to flowering ([2]; pHTOP::FT, line COF7-30, sprayed twice 30 μM): 14.86
reduction of time to flowering ([2]; spraying with 30 mM inducer, compared to non-transgenic or non-sprayed plants): up to 6 days
time to flowering ([2]; wild type, line Col, sprayed twice 30 μM): 20
flowering ([3]; pHTOP-FT + LhG4-GR plants grown in the presence of DEX (30 μM MS-DEX plate, FIG. 5)): accelerated flowering
GUS staining (reporter gene activity) ([3]; pHTOP-FT + LhG4-GR plants grown in the presence of DEX (FIG. 5)): GUS staining

— patent US7626082B2, “Flowering induction” (Agriculture Victoria Services Pty Ltd., priority 2003, dated 2009)
